# Assays:
# [1] = system: lineage negative (Lin−) bone marrow cells (HSPC); experiment: EdU incorporation by flow cytometry in MCF7 tumor-bearing mice, bone marrow; format: in vivo; conditions: single dose IP 100 mg/kg
# Method: (§1) FIG. 2A is a graph depicting the percentage of EdU positive MCF7 tumor cells vs. Edu positive Lin^− bone marrow cells from MCF7 tumor bearing mice treated with Compound 1 at 4, 12, 24, and 48 hours post treatment. MCF7 tumor cells are on the left at each time point while Lin- bone marrow cells are on the right at each time point. FIG. 2B is a graph depicting the percentage of EdU positive MCF7 tumor cells vs. Edu positive Lin^− bone marrow cells from MCF7 tumor bearing mice treated with Compound 1 at 4, 12, 24, and 48 hours post treatment normalized to baseline. MCF7 tumor cells are on the left at each time point while Lin- bone marrow cells are on the right at each time point.
# (§2) MCF7 tumor-bearing mice were treated with a single dose of Compound 1 (IP, 100 mg/kg) or vehicle control. After 4, 12, 24, and 48 hours of treatment, animals were pulsed with 5-ethynyl-2′-deoxyuridine (EdU; IP, 200 […]g). Tumors and femurs from each animal were harvested after 4 hours of EdU dosing and processed to single cell suspensions for detection of EdU+ cells by flow cytometry. HSPC in bone marrow is defined as cell populations negative for lineage markers (Mac-1, Gr-1, Ter119, B220, CD4, CD8). […] Students T tests were completed to compare % EdU+ cells (tumor vs bone marrow) at baseline in panel A ****p≤0.0001.
# MCF7 tumor cells = experiment: EdU incorporation by flow cytometry in MCF7 tumor-bearing mice, tumor cells; format: in vivo; conditions: single dose IP 100 mg/kg
# Method: as §1, §2
# [2] = system: MDA-MB-231 breast cancer xenograft; experiment: MDA-MB-231 xenograft, daily Compound 1 with weekly eribulin, tumor volume; format: in vivo, mice
# Method: The y-axis is tumor volume measured in cubic millimeters. The x-axis is time measured in days. The dotted line represents dates of weekly treatment. The error bars represent standard error of the mean.
# A highly CDK4/6 dependent breast cancer xenograft model (MDA-MB-231) was employed to determine whether continuous CDK4/6 inhibition with Compound 1 would antagonize the intended therapeutic effects of eribulin. First, MDA-MB-231 tumor-bearing mice were treated daily with Compound 1 (IP, 100 mg/kg, n=10) for 28 days to confirm the CDK4/6 dependency of the xenograft model. Next, MDA-MB-231 tumor-bearing mice were treated with eribulin (IV, 0.5 mg/kg, n=10) weekly for three weeks. Next, MDA-MB-231 tumor-bearing mice were treated daily with Compound 1 (IP, 100 mg/kg, n=10) and with eribulin (IV, 0.5 mg/kg, n=10) weekly for three weeks, with Compound 1 being given 30 minutes prior to chemotherapy treatment on days 1, 8, and 15. In all experiments, tumors were measured, and tumor volume was calculated twice weekly. The dosing schedule is shown below in Table 1. […] Therefore, Compound 1 can be administered to preserve hematopoietic stem and progenitor cell (HSPC) and immune system function during eribulin therapy without antagonizing the intended anti-tumor efficacy of eribulin.
# [3] = system: MDA-MB-231 breast cancer xenograft; experiment: MDA-MB-231 xenograft, weekly Compound 1 30 minutes prior to eribulin, tumor volume; format: in vivo, mice
# Method: The graphs represent mean tumor volume over time. The y-axis is tumor volume measured in cubic millimeters. The x-axis is time measured in days. The dotted line represents dates of weekly treatment. The error bars represent standard error of the mean.
# A highly CDK4/6 dependent breast cancer xenograft model (MDA-MB-231) was employed to determine whether transient CDK4/6 inhibition with Compound 1 would antagonize the intended therapeutic effects. First, MD-MB-231 tumor-bearing mice were treated daily with Compound 1 (IP, 100 mg/kg, n=6-8) for 28 days to confirm the CDK4/6 dependency of the xenograft model. Next, MDA-MB-231 tumor-bearing mice were treated with eribulin (IV, 0.5 mg/kg) with or without Compound 1 (IP, 100 mg/kg) weekly for three weeks, with Compound 1 being given 30 minutes prior to chemotherapy treatment. In all experiments, tumors were measured, and tumor volume was calculated twice weekly. […] Therefore, Compound 1 can be administered to preserve hematopoietic stem and progenitor cell (HSPC) and immune system function during eribulin therapy without antagonizing the intended anti-tumor efficacy of eribulin.
# [4] = patients receiving eribulin; cited from earlier work
# [5] = Lin− bone marrow cells, post treatment
# [6] = MCF7 tumor cells, post treatment
Compound,G1-arrest of hematopoietic stem cells [1],"time of maximal cell cycle inhibition (% EdU+ normalized to baseline) [1, 5] [h]","time of reentering the cell cycle [1, 5] [h]",time of maximal cell cycle inhibition (% EdU+ normalized to baseline) (MCF7 tumor cells; [6]) [h],time of reentering the cell cycle (MCF7 tumor cells; [6]) [h],cell cycle status of tumor cells after Compound 1 (MCF7 tumor cells; S/G2/M),"effect of continuous Compound 1 on eribulin therapy (tumor volume) ([2]; Compound 1 IP 100 mg/kg daily for 28 days plus eribulin IV 0.5 mg/kg weekly for three weeks, compared to eribulin alone)",anti-tumor effect of Compound 1 alone ([2]; IP 100 mg/kg daily for 28 days),"effect of Compound 1 on eribulin therapy (tumor volume) ([3]; Compound 1 IP 100 mg/kg 30 minutes prior to eribulin IV 0.5 mg/kg, weekly for three weeks, compared to eribulin alone)","anti-tumor effect of Compound 1 alone ([3]; IP 100 mg/kg, dosed on a similar schedule as in combination with eribulin (weekly for three weeks))",incidence of >grade 3 neutropenia [4]
"CN1CCN(c2ccc(Nc3ncc4cc5n(c4n3)C3(CCCCC3)CNC5=O)nc2)CC1 [Compound 1, 2′-((5-(4-methylpiperazin-1-yl)pyridin-2-yl)amino)-7′,8′-dihydro-6′H-spiro(cyclohexane-1,9′-pyrazino(1′,2′: 1,5)pyrrolo(2,3-d)pyrimidin)-6′-one]",nearly universal G1-arrest,24,≤ 48,24,≤ 48,a significant fraction of tumor cells are past the G1 checkpoint,synergistic effect,did demonstrate a significant anti-tumor effect,no antagonist effect,did not demonstrate any significant anti-tumor effect,
C=C1C[C@@H]2CC[C@@]34C[C@H]5O[C@H]6[C@@H](O3)[C@H]3O[C@H](CC[C@@H]3O[C@H]6[C@H]5O4)CC(=O)C[C@@H]3[C@@H](OC)[C@@H](C[C@H](O)CN)O[C@H]3C[C@H]3O[C@@H](CC[C@@H]1O2)C[C@@H](C)C3=C [eribulin],,,,,,,,,,,around 57%

# Reference: US20210267986A1, “THERAPEUTIC REGIMENS FOR TREATMENT OF CANCER USING ERIBULIN AND SELECTIVE CDK4/6 INHIBITOR COMBINATIONS” (G1 Therapeutics, Inc., priority 2018, published 2021)
